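Step 1: Grow cells in 96-well plates. Step 2: Expose to compound for 48 hours at 5 concentrations. Step 3: Interpolate endpoints linearly; if unreached, use highest concentration. GI50 = concentration required for 50% inhibition of growth. Definition used: TGI = concentration required for complete inhibition of growth.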
Experiments:
Assay in all cases: inhibition of tumour cell growth, NCI panel, 48 h
HOP-92 NSCLC = system: HOP-92 NSCLC
EKVX NSCLC = system: EKVX NSCLC
T-47D breast = system: T-47D breast
HL-60(TB) leukemia = system: HL-60(TB) leukemia
MDA-MB-435 = system: MDA-MB-435
OVCAR-5 ovarian = system: OVCAR-5 ovarian
SK-MEL-2 melanoma = system: SK-MEL-2 melanoma
M14 melanoma = system: M14 melanoma
HS 578T breast = system: HS 578T breast
HT29 colon = system: HT29 colon
NCI/ADR-RES ovarian = system: NCI/ADR-RES ovarian
NCI-H522 lung = system: NCI-H522 lung
CAKI-1 renal = system: CAKI-1 renal
A549 NSCLC = system: A549 NSCLC
OVCAR-3 ovarian = system: OVCAR-3 ovarian
KM12 colon = system: KM12 colon
MDA-MB-231 breast = system: MDA-MB-231 breast
UACC-257 melanoma = system: UACC-257 melanoma
UACC-62 melanoma = system: UACC-62 melanoma
SK-OV-3 ovarian = system: SK-OV-3 ovarian
OVCAR-4 ovarian = system: OVCAR-4 ovarian
MALME-3M melanoma = system: MALME-3M melanoma
BT-549 breast = system: BT-549 breast
SNB-75 CNS = system: SNB-75 CNS
HOP-62 NSCLC = system: HOP-62 NSCLC
NCI-H226 lung = system: NCI-H226 lung
ACHN renal = system: ACHN renal
RPMI-8226 leukemia = system: RPMI-8226 leukemia
MOLT-4 leukemia = system: MOLT-4 leukemia
HCT-116 colon = system: HCT-116 colon
IGROV1 ovarian = system: IGROV1 ovarian
SK-MEL-5 melanoma = system: SK-MEL-5 melanoma
SW-620 colon = system: SW-620 colon
SK-MEL-28 melanoma = system: SK-MEL-28 melanoma
MDA-MB-468 breast = system: MDA-MB-468 breast
SR leukemia = system: SR leukemia
UO-31 renal = system: UO-31 renal
LOX IMVI melanoma = system: LOX IMVI melanoma
HCC-2998 colon = system: HCC-2998 colon
NCI-H23 lung = system: NCI-H23 lung
SN12C renal = system: SN12C renal
U251 CNS = system: U251 CNS
TK-10 renal = system: TK-10 renal
PC-3 prostate = system: PC-3 prostate
SF-539 CNS = system: SF-539 CNS
OVCAR-8 ovarian = system: OVCAR-8 ovarian
A498 renal = system: A498 renal
MCF7 breast = system: MCF7 breast
SF-295 CNS = system: SF-295 CNS
HCT-15 colon = system: HCT-15 colon
786-0 renal = system: 786-0 renal
COLO 205 colon = system: COLO 205 colon
DU-145 prostate = system: DU-145 prostate
NCI-H460 lung = system: NCI-H460 lung
SNB-19 CNS = system: SNB-19 CNS
CCRF-CEM leukemia = system: CCRF-CEM leukemia
SF-268 CNS = system: SF-268 CNS
RXF 393 renal = system: RXF 393 renal
K-562 leukemia = system: K-562 leukemia

## COc1ccc(-c2nc(S(=O)(=O)c3ccc(C)cc3)c(S(=O)(=O)CC(=O)N(C)Cc3ccccc3)o2)cc1
HOP-92 NSCLC
  GI50: 14 µM
  TGI: 39.2 µM
EKVX NSCLC
  GI50: 11.7 µM
  TGI: 25.2 µM
T-47D breast
  GI50: 6.28 µM
  TGI: 25.2 µM
HL-60(TB) leukemia
  GI50: 16.3 µM
  TGI: > 100 µM
MDA-MB-435
  GI50: 7.32 µM
  TGI: 31.1 µM
OVCAR-5 ovarian
  GI50: 12.8 µM
  TGI: 25.5 µM
SK-MEL-2 melanoma
  GI50: 13.8 µM
  TGI: 27.4 µM
M14 melanoma
  GI50: 12.4 µM
  TGI: 30.8 µM
HS 578T breast
  GI50: 4.85 µM
  TGI: 33.5 µM
HT29 colon
  GI50: 9.39 µM
  TGI: 30.5 µM
NCI/ADR-RES ovarian
  GI50: 15.2 µM
  TGI: 45.2 µM
NCI-H522 lung
  GI50: 2.19 µM
  TGI: 6.94 µM
CAKI-1 renal
  GI50: 5.76 µM
  TGI: 18.6 µM
A549 NSCLC
  GI50: 14.6 µM
  TGI: 33.6 µM
OVCAR-3 ovarian
  GI50: 4.25 µM
  TGI: 16.2 µM
KM12 colon
  GI50: 15.8 µM
  TGI: 32.3 µM
MDA-MB-231 breast
  GI50: 9.27 µM
  TGI: 21.6 µM
UACC-257 melanoma
  GI50: 13.1 µM
  TGI: 26.3 µM
UACC-62 melanoma
  GI50: 11.7 µM
  TGI: 23.9 µM
SK-OV-3 ovarian
  GI50: 30.5 µM
  TGI: > 100 µM
OVCAR-4 ovarian
  GI50: 14.2 µM
  TGI: 36.7 µM
MALME-3M melanoma
  GI50: 14.8 µM
  TGI: 29.6 µM
BT-549 breast
  GI50: 12.3 µM
  TGI: 26 µM
SNB-75 CNS
  GI50: 4.82 µM
  TGI: 18.7 µM
HOP-62 NSCLC
  GI50: 16 µM
  TGI: 32.5 µM
NCI-H226 lung
  GI50: 14.8 µM
  TGI: 39.6 µM
ACHN renal
  GI50: 10.8 µM
  TGI: 22.7 µM
RPMI-8226 leukemia
  GI50: 4.45 µM
  TGI: > 100 µM
MOLT-4 leukemia
  GI50: 4.73 µM
  TGI: > 100 µM
HCT-116 colon
  GI50: 5.02 µM
  TGI: 19.6 µM
IGROV1 ovarian
  GI50: 11.1 µM
  TGI: 23.5 µM
SK-MEL-5 melanoma
  GI50: 14.3 µM
  TGI: 27.7 µM
SW-620 colon
  GI50: 4.25 µM
  TGI: 17.5 µM
SK-MEL-28 melanoma
  GI50: 14.3 µM
  TGI: 27.3 µM
MDA-MB-468 breast
  GI50: 2.41 µM
  TGI: 8 µM
SR leukemia
  GI50: 3.27 µM
  TGI: > 100 µM
UO-31 renal
  GI50: 10.3 µM
  TGI: 22 µM
LOX IMVI melanoma
  GI50: 2.79 µM
  TGI: 10.2 µM
HCC-2998 colon
  GI50: 13.3 µM
  TGI: 26.1 µM
NCI-H23 lung
  GI50: 12.5 µM
  TGI: 25.7 µM
SN12C renal
  GI50: 10.5 µM
  TGI: 22.3 µM
U251 CNS
  GI50: 15.4 µM
  TGI: 29.1 µM
TK-10 renal
  GI50: 13.2 µM
  TGI: 26.5 µM
PC-3 prostate
  GI50: 12.1 µM
  TGI: 44.9 µM
SF-539 CNS
  GI50: 10.7 µM
  TGI: 22.5 µM
OVCAR-8 ovarian
  GI50: 13.3 µM
  TGI: 28.9 µM
A498 renal
  GI50: 13.5 µM
  TGI: 26.8 µM
MCF7 breast
  GI50: 3.89 µM
  TGI: 16.8 µM
SF-295 CNS
  GI50: 12.7 µM
  TGI: 25.5 µM
HCT-15 colon
  GI50: 6.17 µM
  TGI: 20.8 µM
786-0 renal
  GI50: 8.89 µM
  TGI: 23 µM
COLO 205 colon
  GI50: 12.2 µM
  TGI: 41.7 µM
DU-145 prostate
  GI50: 10.2 µM
  TGI: 21.8 µM
NCI-H460 lung
  GI50: 8.2 µM
  TGI: 23.3 µM
SNB-19 CNS
  GI50: 14.4 µM
  TGI: 27.5 µM
CCRF-CEM leukemia
  GI50: 3.5 µM
  TGI: > 100 µM
SF-268 CNS
  GI50: 12.1 µM
  TGI: 29.7 µM
RXF 393 renal
  GI50: 5.05 µM
  TGI: 16.9 µM
K-562 leukemia
  GI50: 4.72 µM
  TGI: > 100 µM
